From patent US6362197B1, “Compositions and method for treatment of cough” (Cardiome Pharma Corp., priority 1998, dated 2002) come the findings set out here.

Series [1] has as its system capsaicin aerosol-induced cough. The series can be described thus: Capsaicin aerosol-induced cough in conscious guinea pigs, 5 min aerosol pre-treatment. Type of series: in vivo, guinea pig. Particulars: for Reduction of number of capsaicin-induced cough responses compared with matched vehicle: 5 minute pre-treatment; for Change of mean latency of cough onset: capsaicin-induced cough.

For series [2], the system named is citric acid-induced cough responses. The series can be described thus: Duration of anti-tussive effect against citric acid-induced cough, pre-treatment at various times. Type of series: in vivo, guinea pig. Particulars: 10 mg/ml aerosol. The protocol: Test agents or vehicle were administered as aerosol pre-treatments (10 mg/ml, 5 minute duration) at 5 minutes, 30 minutes, 1 hour, 2 hours and 4 hours prior to induction of cough responses by citric acid aerosol.

The test system is the same in series [3]. The experiment in a line: Therapeutic aerosol treatment after induction of cough by citric acid aerosol. The note with it: aerosol 10 mg/ml for 5 min, given 2 minutes after citric acid exposure began. Type of series: in vivo, guinea pig.
Series [4] has the same test system. The experiment in a line: Citric acid-induced cough responses in ozone-exposed conscious rabbits. Type of series: in vivo, rabbit. The note with it: rabbits exposed to ozone 3 ppm 1 hour, aerosol 10 mg/ml, citric acid 1.6 M, 10 minute count; vehicle 22.0±5.1. As to the method:
Investigation of Antitussive Activity of Aerosolized Compound 1 on Citric Acid-induced Cough Responses in Conscious Rabbits
Twenty-two male New Zealand white rabbits were randomly allocated to either of two groups of 11 rabbits.
Pairs of rabbits (control versus test) were placed in individual exposure chambers with an airflow of 5 liter/min through the chambers.
Each rabbit was exposed to ozone (3 ppm) for 1 hour.
The rabbits were then immediately exposed to aerosols of either vehicle (chamber 1) or Compound 1 (10 mg/ml, chamber 2) at a nebulization rate of 0.9 ml/min.
Cough responses were induced with citric acid aerosol (1.6 M).
Coughs were counted during the 10 minute exposure to citric acid.

The test system is the same in series [5]. The experiment in a line: Citric acid aerosol-induced cough in conscious guinea-pigs, 5 min aerosol pre-treatment. Type of series: in vivo, guinea-pig. The note with it: for Mean latency of cough: time to onset of first cough after initiation of citric acid aerosol: 5 min pre-treatment; for Mean latency of cough: time to onset of first cough after initiation of citric acid aerosol / Total coughs: number of coughs over 15 min following initiation of 1M citric acid aerosol: mean ± SEM; for Inhibition of cough responses compared with matched vehicle pre-treated guinea pigs: Example 2, aerosol pre-treatment immediately before citric acid exposure; for Anti-tussive activity (in words): Example 2, experiment similar to Example 1. From the text:
Male albino Dunkin-Hartley strain guinea-pigs (weight 300-400 g) were supplied by Harlan UK Ltd., Bicester, Oxon, UK.
The method used was modified from that described by Adcock J. J., Schneider C. and Smith T. W., “Effects of Morphine and a Novel Opioid Pentapeptide BW443C, on Cough, Nociception and Ventilation in the Unanaesthetized Guinea-pig”, Br. J. Pharmacol., 93, 93-100 (1988). Individual conscious guinea-pigs were placed unrestrained into a sealed purpose built perspex exposure chamber (3,000 cm^3 volume) and allowed to acclimatize prior to aerosol administration.
Cylinder air was introduced into the exposure chamber at a flow rate of 1 liter/min, maintained by a needle valve and monitored by a rotameter. From the rotameter the air passed through the cup of an ultrasonic nebulizer (DeVilbis UltraNeb 2000) which was used to generate aerosols of drug or citric acid at 0.15 ml/min. A Fleisch pneumotachograph, connected to a differential pressure transducer (Grass model PT5) was attached to the outflow from the exposure chamber and provided a measurement of airflow from the chamber. The differential pressure transducer was connected to a Grass polygraph from which a hard copy record was produced. The output from the polygraph was directed to a computerized data acquisition system (Poh-Ne-Mah) for real time recording of data. A tie-clip microphone was placed in the exposure chamber and connected via a pre-amplifier to a loudspeaker output to provide the observer with an audio monitor of responses.
Cough responses were induced by exposure to an aerosol of citric acid (1M) for 10 minutes. Animals were continuously monitored by trained observer, and the number of coughs were counted during a 15 minute period from commencement of the citric acid aerosol administration.
The three types of response were differentiated primarily by sound and visual observation. […] Data recorded for individual guinea-pigs on the Poh-Ne-Mah system was stored on an optical disk. Each cough was marked on the Grass polygraph paper trace, and from these record numbers, frequency and time of onset of coughs were determined. The cough response was defined by a characteristic coughing sound and behavior, associated with a marked biphasic pressure change.
Quantities of drugs were weighed out and dissolved in a vehicle. Equal volumes were aliquotted into sample tubes before being passed, together with another sample tube containing the same volume of vehicle, to an independent observer for coding. Pre-treatments were matched by concentration together with a vehicle control group. Five guinea-pigs were randomly allocated to each treatment group. […] The sequence of pre-treatment administration was determined according to a 4×4 Latin Square design.
Data presented as the mean ±SEM number of coughs produced by individual guinea-pigs within each group during the 15 minute observation period or mean±SEM latency of cough were analyzed using one way analysis of variance to compare mean responses between matched groups of animals (doses) and between unmatched groups (treatments) followed by the Tukey-Kramer multiple comparison test where appropriate.

As to `CCN(CC)CC(=O)Nc1c(C)cccc1C` [Lidocaine, lidocaine, reference compound], in series [1] (aerosol 10 mg/ml), the “Reduction of number of capsaicin-induced cough responses compared with matched vehicle” value (“Reduction of number … with matched vehicle” for short) amounted to 42.2% and the “Change of mean latency of cough onset” value stood at 1.2 fold. Further, in series [1] (aerosol 30 mg/ml), the “Reduction of number … with matched vehicle” value is 10.3% and the “Change of mean latency of cough onset” value was 0.8 fold.

A word on the melting point: it is the temperature of the solid-liquid transition. Compound `C[N+](C)(CC(=O)Nc1ccccc1)CC(=O)Nc1ccccc1.[Cl-]` [Compound 1, N,N-Bis-(phenylcarbamoylmethyl)dimethylammonium chloride] gave a melting point of 177 to 178 °C. Further, the “Inhibition of cough responses” value in series [2] (pre-treatment 30 minutes before citric acid) is recorded as 63%. For the same compound, in series [2] (pre-treatment 60 minutes before citric acid), the “Inhibition of cough responses” value was determined as 60.7%. Besides, the “Inhibition of cough responses” value in series [2] (pre-treatment 2 hours before citric acid) is 44.0%. Also, in series [2] (pre-treatment 4 hours before citric acid), the “Reduction in mean number of citric acid-induced cough responses” value is listed as 15%. In series [2] (pre-treatment immediately before citric acid exposure), the “Inhibition of cough responses compared with matched vehicle pre-treated guinea pigs” value was 84.9%. Moreover, in series [2] (pre-treatment immediately prior to citric acid exposure), the “Increase of latency of cough onset” value stood at 3.3 fold. For the same compound, in series [3], the “Inhibition of number of cough responses between t=2 and t=10 minutes” value turned out to be 70.8%. In addition, in series [3] (t=0 to t=15 min), the “Inhibition of total number of cough responses during the 15 minute observation period compared with matched vehicle” value came out at 63.8%. In addition, in series [1] (aerosol 10 mg/ml), the “Reduction of number … with matched vehicle” value worked out at 25% and the “Change of mean latency of cough onset” value is given as “no significant effect”. For the same compound, in series [1] (aerosol 30 mg/ml), the “Reduction of number … with matched vehicle” value amounted to 76.9% and the “Change of mean latency of cough onset” value came out at 2.1 fold. For the same compound, the “Number of citric acid-induced cough responses, mean ± SEM” value in series [4] is recorded as 2.7±0.9 coughs. In series [5] (aerosol conc. 0.1 mg/ml), the “Percentage reduction of the cough response compared with matched vehicle control groups” value (from here on “Percentage reduction”) is reported as “(25.3%)”, the “Mean latency of cough: time to onset of first cough after initiation of citric acid aerosol” value (shortened to “Mean latency of cough: time”) came out at 88 ± 6 s and the “Total coughs: number of coughs over 15 min following initiation of 1M citric acid aerosol” value is 22.4 ± 6.0. In series [5] (aerosol conc. 1.0 mg/ml), the “Cough frequency (in words)” value is recorded as “frequency of coughs was reduced”, the “Percentage reduction” value is listed as “(40.4%)”, the “Mean latency of cough: time” value came to 103 ± 11 s and the “Total coughs: number of coughs over 15 min following initiation of 1M citric acid aerosol” value was found to be 16.8 ± 4.0. In series [5] (aerosol conc. 10 mg/ml), the “Guinea-pigs in the group with cough responses completely inhibited” value is given as 4 of the 5, the “Latency of cough onset (in words)” value is “prolonged the latency of cough onset”, the “Percentage reduction” value was “(97.6%)” and the “Sneezing in animals that did not cough” value was “marked absence of sneezing”. In series [5] (aerosol conc. 10 mg/ml), the “Mean latency of cough: time” value is listed as 778 ± 137^-- seconds and the “Total coughs: number of coughs over 15 min following initiation of 1M citric acid aerosol” value is given as 0.6 ± 0.6^--.

As for `CC[N+](CC)(CC)CC(=O)Nc1c(C)cccc1C.[Cl-]` [Compound 3, N-(2,6-dimethylphenylcarbamoylmethyl) triethylammonium chloride], in series [5], the “Inhibition of cough responses compared with matched vehicle pre-treated guinea pigs” value is on record as “over 70%” and the “Anti-tussive activity (in words)” value is given as “effective”.

On to `Cc1cccc(C)c1NC(=O)C[N+](C)(C)C.[Cl-]` [Compound 2, N-(2,6-dimethylphenylcarbamoylmethyl) trimethylammonium chloride], for which, in series [5], the “Inhibition of cough responses compared with matched vehicle pre-treated guinea pigs” value is given as “over 80%” and the “Anti-tussive activity (in words)” value was “effective”.
